The subject of series [1] is AGS. Put plainly: Inhibition of TRAIL-resistance in human AGS cells assessed as inhibition of cell viability at 8 uM incubated for 24 hrs in presence of 100 ng/ml TRAIL by FMCA method relative to TRAIL alone. The class given is functional.
In series [2] the test system is AGS. The series can be described thus: Inhibition of TRAIL-resistance in human AGS cells assessed as inhibition of cell viability at 16 uM incubated for 24 hrs in presence of 100 ng/ml TRAIL by FMCA method relative to TRAIL alone. The class given is functional.
In series [3] the test system is AGS. The series can be described thus: Inhibition of TRAIL-resistance in human AGS cells assessed as inhibition of cell viability at 24 uM incubated for 24 hrs in presence of 100 ng/ml TRAIL by FMCA method relative to TRAIL alone. The class given is functional.
The subject of series [4] is AGS. The series can be described thus: Increase in DR4 protein expression in human AGS cells incubated for 24 hrs by Western blotting method. The class given is functional, cell-based. (In general: In western blotting, separated proteins are transferred to a membrane and probed.)
In series [5] the test system is AGS. The series can be described thus: Increase in DR5 protein expression in human AGS cells incubated for 24 hrs by Western blotting method. The class given is functional, cell-based.
In series [6] the test system is AGS. Put plainly: Increase in cleaved caspase-8 protein expression in human AGS cells incubated for 24 hrs by Western blotting method. The class given is functional, cell-based.
The subject of series [7] is AGS. Put plainly: Increase in cleaved caspase-9 protein expression in human AGS cells at 4 to 12 uM s by Western blotting method. The class given is functional, cell-based.
Series [8] relates to AGS. Put plainly: Increase in caspase-3 protein expression in human AGS cells incubated for 24 hrs by Western blotting method. The class given is functional, cell-based.
The subject of series [9] is AGS. Put plainly: Decrease in Bcl2 protein expression in human AGS cells incubated for 24 hrs by Western blotting method. The class given is functional, cell-based.
In series [10] the test system is AGS. Put plainly: Increase in Bax protein expression in human AGS cells at incubated for 24 hrs by Western blotting method. The class given is functional, cell-based.
Series [11] relates to AGS. The series can be described thus: Increase in p53 protein expression in human AGS cells incubated for 24 hrs by Western blotting method. The class given is functional, cell-based.
Series [12] relates to AGS. The series can be described thus: Increase in CHOP protein expression in human AGS cells incubated for 24 hrs by Western blotting method. The class given is functional, cell-based.
Series [13] relates to AGS. The series can be described thus: Increase in cleaved caspase-8 protein expression in human AGS cells at 16 uM incubated for 24 hrs in presence of 100 ng/ml TRAIL by Western blotting method. The class given is functional.
In series [14] the test system is AGS. Put plainly: Increase in cleaved caspase-8 protein expression in human AGS cells at 16 uM incubated for 24 hrs by Western blotting method. The class given is functional.
For series [15], the system named is AGS. Put plainly: Increase in cleaved caspase-8 protein expression in human AGS cells at 16 uM incubated for 24 hrs in presence of 100 ng/ml TRAIL by Western blotting method relative to TRAIL alone. The class given is functional.
Series [16] has as its system AGS. The series can be described thus: Increase in cleaved caspase-9 protein expression in human AGS cells at 16 uM incubated for 24 hrs in presence of 100 ng/ml TRAIL by Western blotting method. The class given is functional.
The test system of series [17] is AGS. Put plainly: Increase in cleaved caspase-9 protein expression in human AGS cells at 16 uM incubated for 24 hrs by Western blotting method. The class given is functional.
Series [18] concerns AGS. Put plainly: Increase in cleaved caspase-9 protein expression in human AGS cells at 16 uM incubated for 24 hrs in presence of 100 ng/ml TRAIL by Western blotting method relative to TRAIL alone. The class given is functional.
For series [19], the system named is AGS. Put plainly: Increase in cleaved caspase-3 protein expression in human AGS cells at 16 uM incubated for 24 hrs in presence of 100 ng/ml TRAIL by Western blotting method. The class given is functional.
Series [20] deals with AGS. Put plainly: Increase in cleaved caspase-3 protein expression in human AGS cells at 16 uM incubated for 24 hrs by Western blotting method. The class given is functional.
Series [21] has as its system AGS. The series can be described thus: Increase in cleaved caspase-3 protein expression in human AGS cells at 16 uM incubated for 24 hrs in presence of 100 ng/ml TRAIL by Western blotting method relative to TRAIL alone. The class given is functional.
In series [22] the test system is AGS. The series can be described thus: Increase in cleaved caspase-8 protein expression in human AGS cells at 8 uM incubated for 24 hrs in presence of 100 ng/ml TRAIL by Western blotting method relative to TRAIL alone. The class given is functional.
Series [23] relates to AGS. The series can be described thus: Increase in cleaved caspase-8 protein expression in human AGS cells at 8 uM incubated for 24 hrs in presence of 100 ng/ml TRAIL by Western blotting method. The class given is functional.
Series [24] concerns AGS. Put plainly: Increase in caspase-3 protein expression in human AGS cells at 8 uM incubated for 24 hrs in presence of 100 ng/ml TRAIL by Western blotting method. The class given is functional.
The subject of series [25] is AGS. Put plainly: Inhibition of TRAIL-resistance in human AGS cells assessed as inhibition of cell viability at 4 uM incubated for 24 hrs in presence of 100 ng/ml TRAIL by FMCA method relative to TRAIL alone. The class given is functional.
Series [26] deals with AGS. The series can be described thus: Inhibition of TRAIL-resistance in human AGS cells assessed as inhibition of cell viability at 12 uM incubated for 24 hrs in presence of 100 ng/ml TRAIL by FMCA method relative to TRAIL alone. The class given is functional.
In another series the test system is HeLa. Put plainly: Inhibition of TRAIL-resistance in human HeLa cells assessed as inhibition of cell viability at 4 to 12 uM incubated for 24 hrs in presence of 100 ng/ml TRAIL by FMCA method relative to TRAIL alone. The class given is functional, cell-based.
The subject of another series is DLD-1. Put plainly: Inhibition of TRAIL-resistance in human DLD1 cells assessed as inhibition of cell viability at 4 to 12 uM incubated for 24 hrs in presence of 100 ng/ml TRAIL by FMCA method relative to TRAIL alone. The class given is functional, cell-based.
A further series deals with DU-145. Put plainly: Inhibition of TRAIL-resistance in human DU145 cells assessed as inhibition of cell viability at 4 to 12 uM incubated for 24 hrs in presence of 100 ng/ml TRAIL by FMCA method relative to TRAIL alone. The class given is functional, cell-based.
In the next series the test system is MCF7. Put plainly: Inhibition of TRAIL-resistance in human MCF7 cells assessed as inhibition of cell viability at 4 to 12 uM incubated for 24 hrs in presence of 100 ng/ml TRAIL by FMCA method relative to TRAIL alone. The class given is functional, cell-based.
A further series deals with HEK293. Put plainly: Inhibition of TRAIL-resistance in HEK293 cells assessed as inhibition of cell viability at 4 to 8 uM incubated for 24 hrs in presence of 100 ng/ml TRAIL by FMCA method relative to TRAIL alone. The class given is cell-based. The note with it: human, hek293, 24 h.
Series [27] relates to AGS. Put plainly: Increase in cleaved caspase-8 protein expression in human AGS cells at 8 uM incubated for 24 hrs by Western blotting method. The class given is functional.
The subject of series [28] is AGS. Put plainly: Increase in cleaved caspase-9 protein expression in human AGS cells at 8 uM incubated for 24 hrs in presence of 100 ng/ml TRAIL by Western blotting method. The class given is functional.
In series [29] the test system is AGS. Put plainly: Increase in cleaved caspase-9 protein expression in human AGS cells at 8 uM incubated for 24 hrs by Western blotting method. The class given is functional.
Series [30] deals with AGS. The series can be described thus: Increase in cleaved caspase-9 protein expression in human AGS cells at 8 uM incubated for 24 hrs in presence of 100 ng/ml TRAIL by Western blotting method relative to TRAIL alone. The class given is functional.
For series [31], the system named is AGS. The series can be described thus: Increase in caspase-3 protein expression in human AGS cells at 8 uM incubated for 24 hrs by Western blotting method. The class given is functional.
The test system of series [32] is AGS. Put plainly: Increase in caspase-3 protein expression in human AGS cells at 8 uM incubated for 24 hrs in presence of 100 ng/ml TRAIL by Western blotting method relative to TRAIL alone. The class given is functional.
The subject of series [33] is AGS. Put plainly: Increase in DR4 protein expression in human AGS cells at 8 uM incubated for 3 to 12 hrs by Western blotting method. The class given is functional, cell-based. To be noted: TDE = time-dependent effect.
For series [34], the system named is AGS. Put plainly: Increase in DR5 protein expression in human AGS cells at 8 uM incubated for 3 to 12 hrs by Western blotting method. To be noted: TDE = time-dependent effect. The class given is functional, cell-based.
Series [35] has as its system AGS. Put plainly: Inhibition of TRAIL-resistance in human AGS cells assessed as inhibition of cell viability at 10 uM incubated for 24 hrs in presence of 100 ng/ml TRAIL by FMCA method relative to TRAIL alone. The class given is functional.
For series [36], the system named is AGS. Put plainly: Inhibition of TRAIL-resistance in human AGS cells assessed as inhibition of cell viability at 20 uM incubated for 24 hrs in presence of 100 ng/ml TRAIL by FMCA method relative to TRAIL alone. The class given is functional.
Series [37] relates to AGS. Put plainly: Inhibition of TRAIL-resistance in human AGS cells assessed as inhibition of cell viability at 30 uM incubated for 24 hrs in presence of 100 ng/ml TRAIL by FMCA method relative to TRAIL alone. The class given is functional.

SMILES strings stand for the structures. Active and inactive are the calls of the source. The calls are words filed in the database; no cut-off is given here.

Experimental findings from ChEMBL document CHEMBL3593219, “Sesquiterpenes with TRAIL-resistance overcoming activity from Xanthium strumarium” (Bioorg Med Chem, 2015) are described below.

`COc1ccc(C(=O)O[C@@H]2C=C(C)CC[C@@]3(O)[C@@H](C(C)C)CC[C@]23C)cc1`: the “inhibition (INH)” value with AGS [1] was found to be 15%; in the series with AGS [2], 61%; in the series with AGS [3] it was 56%. The Activity entry with AGS [4], in the series on AGS [5], in the series on AGS [6], with AGS [7], with AGS [8] and in the series with AGS [9] was “Dose-dependent effect” each time. Also, the Activity entry with AGS [10] is “Dose-dependent effect”; in the series with AGS [11], “Dose-dependent effect”; in the series with AGS [12], “Dose-dependent effect”; with AGS [13], 100%; with AGS [14], 10%; in the series with AGS [15], 50%. Moreover, the Activity in the series on AGS [16] worked out at 100%; in the series with AGS [17], 15%; in the series on AGS [18] it was 20%; in the series with AGS [19] it was 100%; with AGS [20] it was 5%; in the series with AGS [21], 70%.
For `C=C1C(=O)O[C@H]2C[C@H](C)C(CCC(C)=O)=CC[C@H]12`, the Activity is 20% with AGS [22]; 100% with AGS [23]; 100% in the series with AGS [24]; “Non-toxic” with HEK293; “Dose-dependent effect” with AGS [4]; “Dose-dependent effect” in the series on AGS [5]. The Activity result was “Dose-dependent effect” with AGS [6]; “Dose-dependent effect” with AGS [7]; “Dose-dependent effect” in the series with AGS [8]; 10% in the series with AGS [27]; 100% in the series with AGS [28]; 20% in the series with AGS [29]. Also, the Activity with AGS [30] is 20%; in the series on AGS [31], 25%; in the series with AGS [32], 65%; in the series on AGS [9], “Dose-dependent effect”; in the series with AGS [10], “Dose-dependent effect”; in the series with AGS [33], “tde”. Also, the Activity result in the series on AGS [34] was “tde”; in the series on AGS [11] it was “Dose-dependent effect”; with AGS [12], “Dose-dependent effect”. Also, the “inhibition (INH)” value is recorded as 32% with AGS [25], 44% in the series with AGS [1] and 24% in the series with AGS [26]. The inhibition entry with HeLa, in the series on DLD-1, in the series on DU-145 and in the series with MCF7 was “Active” in each case.
In the case of `CC(O)CCC1=CC[C@H]2[C@H](C[C@@H]1C)OC(=O)[C@H]2C` (stereo partly drawn), the “inhibition (INH)” value was 30% in the series on AGS [35], 51% in the series with AGS [36] and 34% in the series with AGS [37].
On to `C=C1C(=O)O[C@H]2C[C@H](C)C(CCC(C)O)=CC[C@H]12` (stereo partly drawn), for which the “inhibition (INH)” value in the series with AGS [1] was found to be 23%; in the series on AGS [2], 48%; in the series on AGS [3] it was 35%.
On to `CC(=O)CCC1=CC[C@H]2[C@H](C[C@@H]1C)OC(=O)[C@H]2C`, for which the “inhibition (INH)” value in the series with AGS [35] was found to be 19%; with AGS [36], 61%; in the series with AGS [37], 36%.
